This note sets out measurements from patent US11542263B2 (NeuroCycle Therapeutics, Inc., priority 2018, dated 2023).

The series is described as follows: Canine pharmacokinetics. Format: in vivo, Beagle dogs. Conditions: male, beagle, plasma, dog, mean. As for the experimental part: To evaluate the pharmacokinetics (PK) Phosphate Polymorphic Form A, suspensions or solutions were dosed by either oral gavage (0.5% methyl cellulose) or IV (60% PEG400/40% saline) in normal, healthy, male Beagle dogs with serial blood collection focused on the first 48 hours of exposure. Dogs were dosed with vehicle or test compounds at 1 mg/kg (IV) or 2 mg/kg (PO). Approximately 0.5 mL blood was collected at each time point. All blood samples were collected from a peripheral vein. Blood was collected into commercially available tubes (Jiangsu Kangjian medical supplies co., LTD) containing Potassium (K2) EDTA*2H2O and placed on wet ice until processed for plasma. Samples were centrifuged (3,000×g for 10 minutes at 2 to 8° C.) within one hour of collection. The extracts were analyzed for compound concentration by LC/MS/MS. Data were analyzed with Phoenix WinNonlin 6.3 using the IV-Noncompartmental model 201 (IV bolus input) and PO-Noncompartmental model 200 (extravascular input) methods.

For the compound `CC(C)(O)c1cnn2c(-c3ccc(F)c(-c4c(F)cccc4C#N)c3)cnc2n1.O=P(O)(O)O` [Phosphate Polymorphic Form A, 2′,6-difluoro-5′-[3-(1-hydroxy-1-methylethyl)-imidazo[1,2-b][1,2,4]triazin-7-yl]biphenyl-2-carbonitrile], where the note is “IV 1 mg/kg”, the AUC(0-inf) – broadly, total exposure, with the tail of the curve extrapolated – came out at 9170 ng·h/mL; the AUC(0-t) (in general, the area under the concentration-time curve up to a stated or last time point) came out at 7850 ng·h/mL; the clearance (in general, the volume of plasma or blood freed of the substance per unit of time) came out at 2.52 mL/min/kg; the half-life (usually the time in which the quantity being followed falls by half) was 12.8 h. The Vd (IV 1 mg/kg, read-out: Vdss) was determined as 1.93 L/kg. For the setting “PO 2 mg/kg”, the area under the curve AUC(0-inf) came out at 13900 ng·h/mL; the exposure AUC(0-t) was 11700 ng·h/mL; the maximum concentration (Cmax) (as a rule, the highest concentration seen after dosing) was determined as 649 ng/mL; the Tmax – broadly, the time from dosing to the highest level – was determined as 3.33 h. Moreover, for the setting “PO 2 mg/kg”, the bioavailability (commonly dose-corrected exposure relative to a reference, in per cent) came to 74.7% and the half-life is 12.2 h.
